Assay results reported in patent publication US9969679B2, “Anti-proliferative compounds and uses thereof” (Dana-Farber Cancer Institute, Inc., priority 2012, dated 2018).

Key:
EGFR = test: Immunoblot of whole cell lysates for EGFR; format: cell-based, human; settings: for EGFR expression, dose-dependent: 24 hr
Procedure: (§1) MCF7 cells were obtained and cultured (in the presence of compound III-B for 48 hr) in a similar manner as in Example 6. The cultured MCF7 cells were harvested, washed, and lysed using a lysis buffer (50 mM Tris-HCl (pH 7.4), 150 mM NaCl, 1% NP-40, 5 mM EDTA, 5 mM NaF, 1 mM Na3VO4, 1 mM PMSF, 5 μg/ml leupeptine, and 5 μg/ml aprotinin). […] The antibodies used were polyclonal anti-acetylated lysine (Ac—K; Cell Signaling Technology, Danvers, Mass.) and antibodies directed against EGFR, HER2, ER, and acetylated-α-tubulin (Ac-α-tubulin). […] In contrast, the expression of Ac—K in MCF7 cells was not affected by compound III-B (FIG. 12B).
(§2) MCF7 and T47D cells were obtained and cultured (in the presence of compound III-D (0, 0.5, 1, or 2 μM), for 24 hr), using methods similar to the ones described in Example 6. The whole cell lysates were immunoblotted with antibodies against EGFR, HER2, ER, and α-tubulin using methods similar to the ones described in Example 12. […] In contrast, the expression of α-tubulin in MCF7 or T47D cells was not affected by compound III-D (FIG. 13B).
(§3) MCF7 cells were obtained and cultured (in the presence of 2 μM of compound III-D, for 0, 12, 24, or 48 hr) using methods similar to the ones described in Example 6. The whole cell lysates were immunoblotted with antibodies against EGFR, HER2, ER, and α-tubulin using methods similar to the ones described in Example 12. […] In contrast, the expression of α-tubulin in MCF7 cells was not affected by compound III-D.

ER = test: Immunoblot of whole cell lysates for ER; format: cell-based, human; settings: for ER expression, dose-dependent: 24 hr
Procedure: as §1, §2, §3

[1] = tested on: MCF7 human breast cancer cell lines; test: MCF7 cell growth, MTT dye absorbance; format: cell-based; settings: for MCF7 cell growth: 72 hr
Procedure: (§4) MCF7 human breast cancer cell lines were obtained from the American Type Culture Collection (Manassas, Va.). The cells were cultured in DMEM (Mediatech Inc., Manassas, Va.) or RPMI1640 (Mediatech Inc., Manassas, Va.) supplemented with FBS (10%), penicillin, streptomycin, and glutamine (Invitrogen, Auckland, New Zealand). […] The MCF7 cells were harvested using 0.05% trypsin-EDTA (Invitrogen) and distributed into 96-well plates (10,000-20,000 cells/well) 24 hr prior to the treatment. All experiments were performed three times in quadruplicate.

HER2 = test: Immunoblot of whole cell lysates for HER2; format: cell-based, human; settings: for HER2 expression, dose-dependent: 24 hr
Procedure: as §1, §2, §3

acetylated lysine (Ac—K) = test: Immunoblot for acetylated lysine (histone acetylation); format: cell-based, human; settings: MCF7 cells, 48 hr
Procedure: as §1

[2] = tested on: LnCaP human prostate cancer cells; test: LnCaP cell growth, MTT dye absorbance; format: cell-based; settings: 72 hr
Procedure: [The procedure below names another cell line; the source lists this cell line under the same test.] as §4

[3] = tested on: T47D human breast cancer cells; test: T47D cell growth, MTT dye absorbance; format: cell-based; settings: for T47D cell growth: 72 hr
Procedure: as §4
T47D human breast cancer cells were obtained, cultured (in the presence of compounds III-A, III-B, III-C, or III-E), and assayed in a similar manner as in Example 6.

MCF7 cells = test: Bortezomib and III-D combination cytotoxicity in MCF7 cells, MTT, isobologram analysis; format: cell-based, human; settings: 48 hr; for Combination indicia (CI): MCF7 cells
Procedure: as §4
MCF7 cells were obtained, cultured (in the presence of bortezomib (0, 10, 20, or 40 nM) and III-D (0, 0.3, 1, or 3 μM), for 48 hr), and assayed using methods similar to the ones described in Example 6. The statistical significance of the differences observed between the control cultures and the cultures treated with bortezomib and compound III-D was determined using the Wilcoxon signed-ranks test. The minimal level of significance was p<0.05. The interaction between compound III-D and bortezomib was analyzed by isobologram analysis using the CalcuSyn software program (Biosoft, Ferguson, Mo.) to determine whether the combination was additive or synergistic. A combination index (CI)<1.0 indicates a synergistic cell growth inhibitory effect.

[4] = tested on: CD11b+CD14−HLA-DR−/lowCD33+CD15+ MDSCs in MM-PBMC; test: MDSC number and maturation in MM-PBMC, flow cytometry; format: cell-based, human; settings: 1 μM, cultured overnight; for number of CD11b+CD14−HLA-DR−/lowCD33+CD15+ MDSCs in MM-PBMC: vs untreated MM-PBMC
Procedure: In order to determine whether myeloid derived suppressor cells (MDSCs) are present in subjects with multiple myeloma (MM), fresh or cultured peripheral blood mononuclear cells (PBMCs) and bone marrow mononuclear cells (BMMCs) from human subjects with MM have been analyzed using standard cell-surface multicolor flow cytometry staining methods (see, e.g., Herzenberg et al., Clin. Chem. (2002) 48:1819-27; and Perez et al., Nat. Biotechnol. (2002) 20:155-62).
MM-PBMCs were cultured overnight with (1 μM) or without compound III-D. MDSCs (CD11b^+CD14^−HLA-DR^−/lowCD33^+CD15^+) were determined by flow cytometry analysis. Gates 110 and 130 indicate the MDSC population. Compound III-D induces maturation of MDSCs (CD11b^+CD14^−HLA-DR^−/lowCD33^+CD15^+) into CD14^+ and/or CD14^−[…] (FIG. 3G) in MM peripheral blood compared to untreated MM-PBMC (FIG. 3C). MM-PBMCs were cultured overnight with (1 μM) or without compound III-D. CD14 and/or HLA-DR expressing MDSCs (CD11b^+CD14^−HLA-DR^−/lowCD33^+CD15^+) were determined by flow cytometry analysis. Gates 100 and 120 indicate CD14^+ mature MDSC population. Gating strategy of MDSCs has been indicated as CD11b^+ cells (FIGS. 3A-3B and 3E-3F), CD11b^+CD14^−HLA-DR^−/lowCD14^− cells (FIGS. 3C and 3G) and MDSCs with a phenotype of CD11b^+/HLA-DR^−/lowCD14^−/CD33^+CD15^+ cells (FIGS. 3D and 3H).

pY705 STAT3 = test: Intracellular flow cytometry of STAT3 phosphorylation in MDSCs; format: cell-based, human; settings: 1 μM overnight, MM-PBMC, PHA 2 ng/ml 10 min
Procedure: (§5) STAT-mediated signaling plays an important role in MDSC activation and function.
(§6) MM-PBMCs were cultured overnight with (1 μM) or without compound III-D. Cells were induced with phytohemagglutinin (PHA, 2 ng/ml) for 10 min. Intracellular expression of pY701 STAT1, pY705 STAT3, pY694 STAT5, STAT1, STAT3, and STAT5 in MDSCs (CD11b^+CD14^−HLA-DR^−/lowCD33^+CD15^+), was determined by flow cytometry analysis.

[5] = tested on: T cells cocultured with MDSCs from peripheral blood of MM patients; test: MDSC-mediated T cell suppression, 3H-Thymidin incorporation assay; format: cell-based, human; settings: 1 μM, 5 days coculture, T:MDSCs 4:1, antiCD3/CD28 Abs and rhIL-2
Procedure: CD11b^+CD14^−HLA-DR^−/lowCD33^+ MDSCs and CD3T cells were isolated from peripheral blood of MM patients. The cells were stimulated with antiCD3/CD28 Abs and 2 ng/ml rhIL-2 and cocultured (ratio of T:MDSCs was 4:1) for 5 days in the absence or presence (1 μM) of compound III-D. The cell proliferation was measured by ^3H-Thymidin incorporation assay.

pY694 STAT5 = test: Intracellular flow cytometry of STAT5 phosphorylation in MDSCs; format: cell-based, human; settings: 1 μM overnight, MM-PBMC, PHA 2 ng/ml 10 min
Procedure: as §5, §6

α-tubulin = test: Immunoblot of whole cell lysates for α-tubulin; format: cell-based, human
Procedure: as §1, §2, §3

pY701 STAT1 = test: Intracellular flow cytometry of STAT1 phosphorylation in MDSCs; format: cell-based, human; settings: 1 μM overnight, MM-PBMC, PHA 2 ng/ml 10 min
Procedure: as §5, §6

[6] = MCF7 cells, 2 μM, 0, 12, 24, or 48 hr

For `CC(=O)N/N=C/c1ccc(N(c2ccccc2)c2ccccc2)cc1` [Compound III-B], the EGFR expression (EGFR; MCF7 cells, 48 hr) was “down-regulates”, the ER expression (ER; MCF7 cells, 48 hr) was “down-regulates” and the MCF7 cell growth [1] was “inhibit”. For the same compound, the HER2 expression (HER2; MCF7 cells, 48 hr) was “down-regulates”, the “expression of Ac—K” value (acetylated lysine (Ac—K)) was “not affected” and the LnCaP cell growth [2] was “inhibit”. For the same compound, the T47D cell growth [3] was “inhibit”.

With `O=C(N/N=C/c1ccc(N(c2ccccc2)c2ccccc2)cc1)c1ccccc1` [Compound III-C] the MCF7 cell growth [1] was “inhibit”, the LnCaP cell growth [2] was “inhibit” and the T47D cell growth [3] was “inhibit”.

For `CN1CCC(C(=O)N/N=C/c2ccc(N(c3ccccc3)c3ccccc3)cc2)CC1` [Compound III-D], the “EGFR expression, dose-dependent” value (EGFR; MCF7 cells, 0, 0.5, 1, or 2 μM) was “down-regulates”, the “EGFR expression, time-dependent” value (EGFR; [6]) was “down-regulates” and the “EGFR expression, dose-dependent” value (EGFR; T47D cells, 0, 0.5, 1, or 2 μM) was “down-regulates”. For the same compound, the “ER expression, dose-dependent” value (ER; MCF7 cells, 0, 0.5, 1, or 2 μM) was “down-regulates”, the “ER expression, time-dependent” value (ER; [6]) was “down-regulates” and the “ER expression, dose-dependent” value (ER; T47D cells, 0, 0.5, 1, or 2 μM) was “down-regulates”. The MCF7 cell growth [1] was “inhibit”, the “potency in inhibiting MCF7 cells compared with tamoxifen” value ([1]; at least at 3-10 μM of compound and tamoxifen) was “more potent than tamoxifen” and the “HER2 expression, dose-dependent” value (HER2; MCF7 cells, 0, 0.5, 1, or 2 μM) was “down-regulates”. The “HER2 expression, time-dependent” value (HER2; [6]) was “down-regulates”, the “HER2 expression, dose-dependent” value (HER2; T47D cells, 0, 0.5, 1, or 2 μM) was “down-regulates” and the “Combination indicia (CI)” value (MCF7 cells; III-D 0.3 μM + bortezomib 10 nM) was 1.58. For the same compound, the “Combination indicia (CI)” value (MCF7 cells; III-D 0.3 μM + bortezomib 20 nM) was 1.29, the “Combination indicia (CI)” value (MCF7 cells; III-D 0.3 μM + bortezomib 40 nM) was 0.83 and the “Combination indicia (CI)” value (MCF7 cells; III-D 1 μM + bortezomib 10 nM) was 0.66. The “Combination indicia (CI)” value (MCF7 cells; III-D 1 μM + bortezomib 20 nM) was 0.53, the “Combination indicia (CI)” value (MCF7 cells; III-D 1 μM + bortezomib 40 nM) was 0.53 and the “Combination indicia (CI)” value (MCF7 cells; III-D 3 μM + bortezomib 10 nM) was 1.22. For the same compound, the “Combination indicia (CI)” value (MCF7 cells; III-D 3 μM + bortezomib 20 nM) was 1.03, the “Combination indicia (CI)” value (MCF7 cells; III-D 3 μM + bortezomib 40 nM) was 0.98 and the “enhancement of bortezomib-induced MCF7 cytotoxicity (interaction)” value (MCF7 cells; combination with bortezomib, at least at certain concentrations, CI<1 = synergistic) was “synergistically”. For the same compound, the “maturation of MDSCs into CD14+ monocytes and/or CD14+HLA-DR+ antigen presenting cells” value ([4]; MM-PBMC) was “induced maturation”, the “number of CD11b+CD14−HLA-DR−/lowCD33+CD15+ MDSCs in MM-PBMC” value [4] was “significant decrease” and the “phosphorylation of STAT3 (pY705) in MDSCs” value (pY705 STAT3) was “significantly reduced”. For the same compound, the “MDSC-mediated T cell suppression (T cell proliferation)” value [5] was “Reversed”, the “phosphorylation of STAT5 (pY694) in MDSCs” value (pY694 STAT5) was “significantly reduced” and the “expression of α-tubulin” value (α-tubulin; MCF7 cells, 0, 0.5, 1, or 2 μM, 24 hr) was “not affected”. The “expression of α-tubulin” value (α-tubulin; [6]) was “not affected”, the “expression of α-tubulin” value (α-tubulin; T47D cells, 0, 0.5, 1, or 2 μM, 24 hr) was “not affected” and the “phosphorylation of STAT1 (pY701) in MDSCs” value (pY701 STAT1) was “significantly reduced”. The “potency in inhibiting T47D cells compared with tamoxifen” value [3] was “more potent than tamoxifen”.

With `O/N=C/c1ccc(N(c2ccccc2)c2ccccc2)cc1` [Compound III-E] the MCF7 cell growth [1] was “inhibit”, the LnCaP cell growth [2] was “inhibit” and the T47D cell growth [3] was “inhibit”.

In the case of `O=C1CN(/N=C/c2ccc(N(c3ccccc3)c3ccccc3)cc2)C(=O)N1` [Compound III-F], the MCF7 cell growth [1] is reported as “inhibit”, the “number of CD11b+CD14−HLA-DR−/lowCD33+CD15+ MDSCs in MM-PBMC” value [4] is reported as “decreased” and the “phosphorylation of STAT3 (pY705) in MDSCs” value (pY705 STAT3) is reported as “decreases”. The “MDSC-mediated T cell suppression (T cell proliferation)” value [5] was “reverses”, the “phosphorylation of STAT5 (pY694) in MDSCs” value (pY694 STAT5) was “decreases” and the “phosphorylation of STAT1 (pY701) in MDSCs” value (pY701 STAT1) was “decreases”.

For `O=C(NN=Cc1ccccc1)c1ccccc1` [Compound IV-B], the MCF7 cell growth [1] was “do not”.

With `CC(=O)NN=Cc1ccccc1` [Compound IV-C] the MCF7 cell growth [1] was “do not”.

`CC(=O)NN=Cc1ccc(N(C)C)cc1` [Compound IV-D] was tested, and the MCF7 cell growth [1] was “does not”.

In the case of `O=Cc1ccc(N(c2ccccc2)c2ccccc2)cc1` [III-A], the MCF7 cell growth [1] is reported as “inhibit”, the LnCaP cell growth [2] is reported as “inhibit” and the T47D cell growth [3] is reported as “inhibit”.

`CC(C)C[C@H](NC(=O)[C@H](Cc1ccccc1)NC(=O)c1cnccn1)B(O)O` [bortezomib, reference compound] was tested, and the “response of MCF7 cells to bortezomib as single agent” value (MCF7 cells; bortezomib 0, 10, 20, or 40 nM) was “resistant”.
